Measured values: the supplement of paper PMC11208160

Experiment: recombinant barcode read abundance after kanamycin selection (control-corrected) (log10(CPM+1)); higher = more efficient recombination; sequences stand for … in AGTGCAGAGAAAATCGGCCAGTTTTCTCTGCCTGCAGTCCGCATGCCGT…AGATTTATGCAGCGGACTGCCTTTCTCCCAAAGTGATAAACCGGACAGTATCATGGACCGGTTTTCCCGGTAATCCGTATTTGCAAGGTTGGTTTCACT; site = the 11-nt target
Method in brief: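 Each value is log10(CPM+1). It describes recombination efficiency, taken as averaged, control-corrected counts per million of barcodes at recombinant junctions. The pooled E. coli library paired targets with IS621 bridge RNA target-binding loops, was co-electroporated with a donor plasmid, and was plated twice on chloramphenicol/ampicillin LB agar (control) and twice on chloramphenicol/ampicillin/kanamycin containing 0.1 mM IPTG.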
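Further: IS621 recombinase and bridge RNA in Escherichia coli cells.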

Sequence | recombinant barcode read abundance (log10)
TCCCAAACTTGGGTTCTAACCTGTTGCAC (site TCCCAAACTGT) | 0.657
TCCCACACTTGGGTTCTAACCTGTTGCCA (site ACCCACACTCG) | 0.129
TCCCACACTTGGGTTCTAACCTGTTGCCA (site TCCCACACTTG) | 1.33
TCCCAGCCTTGGGTTCTAACCTGTTGCTG (site TCCCAGCCTCA) | 0.0849
TCCCAGCCTTGGGTTCTAACCTGTTGCTG (site TCCCATCCTAA) | 0.274
TCCCATCCTTGGGTTCTAACCTGTTGCTT (site TCCCAGCCTCA) | 0.524
TCCCATCCTTGGGTTCTAACCTGTTGCTT (site TCCCATCCTAA) | 0.114
TCCCATGCTTGGGTTCTAACCTGTTGCCT (site TCCCATACTAG) | 0.19
TCCCATGCTTGGGTTCTAACCTGTTGCCT (site TCCCATCCTAG) | 0.151
TCCCATGCTTGGGTTCTAACCTGTTGCCT (site TCCCATGCTAG) | 1.17
TCCCATGCTTGGGTTCTAACCTGTTGCCT (site TCCCATTCTAG) | 0.0569
TCCCCGACTTGGGTTCTAACCTGTTGCCG (site TCCCCGACTCG) | 1.03
TCCCCGACTTGGGTTCTAACCTGTTGCCG (site TCGCCTACTCG) | 0.03
TCCCCGGCTTGGGTTCTAACCTGTTGCGG (site CAAAACTCTAA) | 0.262
TCCCCGGCTTGGGTTCTAACCTGTTGCGG (site TCCCCGGCTCC) | 1.48
TCCCGATCTTGGGTTCTAACCTGTTGCCT (site TCCCGAACTAG) | 0.0997
TCCCGATCTTGGGTTCTAACCTGTTGCCT (site TCCCGACCTAG) | 0.521
TCCCGATCTTGGGTTCTAACCTGTTGCCT (site TCCCGAGCTAG) | 0.065
TCCCGATCTTGGGTTCTAACCTGTTGCCT (site TCCCGATCTAG) | 0.502
TCCCTTCCTTGGGTTCTAACCTGTTGCCT (site TCCCGTCCTAG) | 0.0443
TCCCTTCCTTGGGTTCTAACCTGTTGCCT (site TCCCTTCCTAG) | 0.365
TCCGAAGCTTGGGTTCTAACCTGTTGCCT (site GACGAAGCTAG) | 0.444
TCCGAAGCTTGGGTTCTAACCTGTTGCCT (site TCCGAAGCTAG) | 0.487
TCCGACTCTTGGGTTCTAACCTGTTGCCG (site TCCGACTCTCG) | 1.55
TCCGACTCTTGGGTTCTAACCTGTTGCCG (site TCCTACTCTCG) | 0.122
TCCGAGACTTGGGTTCTAACCTGTTGCCA (site TCCGAGACTAG) | 0.598

Sequence | recombinant barcode read abundance (log10)
TCCGAGACTTGGGTTCTAACCTGTTGCCA (site TCCGAGACTCG) | 0.208
TCCGAGACTTGGGTTCTAACCTGTTGCCA (site TCCGAGACTGG) | 0.176
TCCGAGACTTGGGTTCTAACCTGTTGCCA (site TCCGAGACTTG) | 1.34
TCCGAGACTTGGGTTCTAACCTGTTGCCC (site TCCGAGACTAG) | 0.146
TCCGAGACTTGGGTTCTAACCTGTTGCCC (site TCCGAGACTCG) | 0.338
TCCGAGACTTGGGTTCTAACCTGTTGCCC (site TCCGAGACTGG) | 1.08
TCCGAGACTTGGGTTCTAACCTGTTGCCC (site TCCGAGACTTG) | 0.0317
TCCGCGACTTGGGTTCTAACCTGTTGCCT (site TCAGCGACTAG) | 0.0444
TCCGCGACTTGGGTTCTAACCTGTTGCCT (site TCCGCGACTAG) | 0.159
TCCGCGACTTGGGTTCTAACCTGTTGCCT (site TCGGCGACTAG) | 0.453
TCCGCGACTTGGGTTCTAACCTGTTGCCT (site TCTGCGACTAG) | 0.17
TCCGCTGCTTGGGTTCTAACCTGTTGCCT (site TCCGCTACTAG) | 0.151
TCCGCTGCTTGGGTTCTAACCTGTTGCCT (site TCCGCTCCTAG) | 0.0574
TCCGCTGCTTGGGTTCTAACCTGTTGCCT (site TCCGCTGCTAG) | 0.283
TCCGCTGCTTGGGTTCTAACCTGTTGCCT (site TCCGCTTCTAG) | 0.00679
TCCGGTACTTGGGTTCTAACCTGTTGCAT (site TCCAGTACTAT) | 0.369
TCCGGTACTTGGGTTCTAACCTGTTGCAT (site TCCCGTACTAT) | 0.0823
TCCGGTACTTGGGTTCTAACCTGTTGCAT (site TCCGGTACTAT) | 0.849
TCCGGTACTTGGGTTCTAACCTGTTGCAT (site TCCTGTACTAT) | 0.114
TCCGTCCCTTGGGTTCTAACCTGTTGCTG (site TCCGTACCTCG) | 0.0427
TCCGTCCCTTGGGTTCTAACCTGTTGCTG (site TCCGTCCCTCA) | 1.57
TCCGTGCCTTGGGTTCTAACCTGTTGCCT (site TCCGTGACTAG) | 0.00917
TCCGTGCCTTGGGTTCTAACCTGTTGCCT (site TCCGTGCCTAG) | 0.598
TCCGTGCCTTGGGTTCTAACCTGTTGCCT (site TCCGTGGCTAG) | 0.304
TCCGTGCCTTGGGTTCTAACCTGTTGCCT (site TCCGTGTCTAG) | 0.17
TCCGTTACTTGGGTTCTAACCTGTTGCCG (site CAGCAGCCTAA) | 0.086

Sequence | recombinant barcode read abundance (log10)
TCCGTTACTTGGGTTCTAACCTGTTGCCG (site TCCGTTACTCG) | 0.336
TCCTCTCCTTGGGTTCTAACCTGTTGCTT (site TCCTCTCCTAA) | 0.118
TCCTCTCCTTGGGTTCTAACCTGTTGCTT (site TGCCCTCCTAA) | 0.0451
TCCTGGCCTTGGGTTCTAACCTGTTGCCT (site TCCAGGGCTAG) | 0.209
TCCTGGCCTTGGGTTCTAACCTGTTGCCT (site TCCTGGCCTAG) | 0.117
TCCTGTCCTTGGGTTCTAACCTGTTGCAT (site TCCTGTACTAG) | 0.0187
TCCTGTCCTTGGGTTCTAACCTGTTGCAT (site TCCTGTCCTAT) | 0.467
TCCTGTGCTTGGGTTCTAACCTGTTGCCT (site TCCTGTGCTAG) | 0.254
TCCTGTGCTTGGGTTCTAACCTGTTGCCT (site TTCTATGCTAG) | 0.00897
TCCTTCTCTTGGGTTCTAACCTGTTGCCT (site GAGGGGACTCT) | 0.103
TCCTTCTCTTGGGTTCTAACCTGTTGCCT (site TCCTTCTCTAG) | 0.601
TCGAACCCTTGGGTTCTAACCTGTTGCCT (site TCGAAACCTAG) | 0.36
TCGAACCCTTGGGTTCTAACCTGTTGCCT (site TCGAACCCTAG) | 0.639
TCGAACCCTTGGGTTCTAACCTGTTGCCT (site TCGAAGCCTAG) | 0.115
TCGAACCCTTGGGTTCTAACCTGTTGCCT (site TCGAATCCTAG) | 0.151
TCGAACGCTTGGGTTCTAACCTGTTGCTT (site CACGGGACTCT) | 0.115
TCGAACGCTTGGGTTCTAACCTGTTGCTT (site TCGAACGCTAA) | 0.135
TCGACCACTTGGGTTCTAACCTGTTGCCT (site TATACCACTAG) | 0.0386
TCGACCACTTGGGTTCTAACCTGTTGCCT (site TCGACCACTAG) | 0.115
TCGAGGCCTTGGGTTCTAACCTGTTGCGG (site TAGAGCCCTCC) | 0.724
TCGAGGCCTTGGGTTCTAACCTGTTGCGG (site TCGAGGCCTCC) | 1.34
TCGAGTCCTTGGGTTCTAACCTGTTGCCA (site TCGAGTCCTTG) | 0.084
TCGAGTCCTTGGGTTCTAACCTGTTGCCA (site TGGTGTCCTTG) | 0
TCGATCACTTGGGTTCTAACCTGTTGCCT (site TCGATCACTAG) | 0.738
TCGATCACTTGGGTTCTAACCTGTTGCCT (site TCGATTACTAG) | 0.0188
